Data reported in patent publication EP0231622B1, “Inhibition of the 5-lipoxygenase pathway” (priority 1985, dated 1987).
Like-named read-outs stand apart in the source and are kept apart here. Marks after values point to notes of the source that are not given here.

What was measured:
[1] = test system: Polymorphonuclear Leukocytes; test: Mouse Carrageenan Peritonitis (PMN infiltration); type: in vivo, Balb/c mice; settings: Table 2, Experiment 1, p.o.
Description: (§1) In the following Examples where mice were used, they were male Balb/c mice (20-28 g), and where rats were used, they were male Lewis rats (180-210 g). All mice and rats were obtained from Charles River Breeding Laboratories, Kingston, N.Y. Within a single experiment, mice and rats were sex and age matched.
(§2) The compounds of Formula (IA) were used either as the free base or in the appropriate salt form. Levamisole was used as the hydrochloride salt. The compounds were homogenized in 0.5% tragacanth. Compounds were administered by gavage at the indicated dose in a final volume of 10 ml/kg. Nordihydroguaiaretic acid (NDGA) was solubilized in dimethylacetamide and diluted with olive oil for subcutaneous administration.
Mice were pretreated with either the test compound or vehicle one hour before the intraperitoneal injection of a 1.0% carrageenan suspension in saline (0.2 ml/ mouse). Mice were sacrificed by cervical dislocation two hours after injection, and 3.0 ml of phosphate buffered saline, without Ca⁺⁺ or Mg⁺⁺, was injected into the peritoneum. Following massage, a 2.0 ml aliquot of the lavage fluid was removed, and the total cell count determined on a Coulter counter and differential cell count determined by microscopic examination of Giesma-stained slides.

[2] = test system: Arachidonic Acid-Induced Inflammation of the Mouse Ear; test: Arachidonic acid-induced mouse ear inflammation; type: in vivo, Balb/c mice; settings: for % Inhibition of Ear Swelling: Table 7A, 50 mg/kg s.c. or i.p., NS = not significant
Description: as §1, §2
Arachidonic acid in acetone (2 mg/20 ul) was applied to the inner surface of the left ear. The thickness of both ears was then measured with a dial micrometer one hour after treatment, and the data were expressed as the change in thickness (10⁻³ cm) between treated and untreated ears.
Test compounds were given orally in 0.5% tragacanth at the times indicated in the text prior to the topical application of arachidonic acid.
Parenteral administration of compound was accomplished by subcutaneous injection of solution as indicated.

[3] = test system: Production of PGE₂ by Mouse Peritoneal Exudate Cells; test: PGE2 production by peritoneal macrophages; type: cell-based
Description: (§3) For in vitro experiments, compounds were dissolved at appropriate concentrations in ethanol or DMSO (dimethylsulfoxide) (final concentration <1.0%) and then diluted to final concentrations using the buffers indicated in the text.
Mice were injected intraperitoneally with 350 »g Corynebacterium parvum and the peritoneal exudate cell population was harvested 12-14 days later by peritoneal lavage with cold phosphate-buffered saline, and resuspended in Eagles minimal essential medium supplemented with 5% fetal calf serum. […] Test compounds were added (100 ul) to bring the final volume to 1.0 ml. Lipopolysaccharide (5 »g/ml) was then added to stimulate PGE₂ synthesis. After incubation at 37°C for 2 hours, cell-free supernatants were harvested, placed in polypropylene tubes and frozen at -20°C until assayed for their PGE₂ content using a commercial radioimmunoassay kit. IC₅₀ is the concentration that inhibits 50% of control activity.

[4] = target: T1, 5-Lipoxygenase (Rattus norvegicus, UniProt P12527); test: 5-HETE production by RBL-1 high speed supernatant; type: biochemical; settings: Table 8A; RBL-1 high speed supernatant
T1 construct: The activities of these enzymes in extracts of RBL-1 cells were assayed; host or cells: RBL-1 cells, disrupted by nitrogen cavitation; 10,000 x g or 100,000 x g supernatant
T1 sequence (P12527 1-673): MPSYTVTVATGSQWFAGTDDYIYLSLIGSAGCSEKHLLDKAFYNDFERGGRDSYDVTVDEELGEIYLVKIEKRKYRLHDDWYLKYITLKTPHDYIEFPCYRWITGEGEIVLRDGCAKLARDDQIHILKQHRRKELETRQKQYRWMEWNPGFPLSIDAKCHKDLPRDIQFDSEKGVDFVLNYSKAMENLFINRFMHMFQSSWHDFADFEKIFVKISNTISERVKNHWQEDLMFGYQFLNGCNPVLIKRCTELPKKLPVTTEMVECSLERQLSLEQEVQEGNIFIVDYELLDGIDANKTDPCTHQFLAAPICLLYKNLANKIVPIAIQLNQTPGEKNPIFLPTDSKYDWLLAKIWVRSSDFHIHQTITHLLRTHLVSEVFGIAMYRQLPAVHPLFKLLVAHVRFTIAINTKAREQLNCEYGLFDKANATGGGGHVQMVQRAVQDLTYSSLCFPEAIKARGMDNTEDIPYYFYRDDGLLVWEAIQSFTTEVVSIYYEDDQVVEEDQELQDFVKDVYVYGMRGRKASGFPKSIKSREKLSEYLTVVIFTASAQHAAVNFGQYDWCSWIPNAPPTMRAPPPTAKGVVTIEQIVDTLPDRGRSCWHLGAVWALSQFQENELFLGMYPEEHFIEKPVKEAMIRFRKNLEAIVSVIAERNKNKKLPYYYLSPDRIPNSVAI
Description: as §3
(§4) The activities of these enzymes in extracts of RBL-1 cells were assayed using the method of Jakschik and Lee, Nature, 287, 51-52 (1980). RBL-1 cells were obtained from the American Type Culture Collection (#CRL 1378) and were grown at 37°C (5% CO₂ in air) in spinner culture in MEM supplemented with 10% heat inactivated fetal calf serum. Harvested cells were washed with 50 mM sodium phosphate buffer, pH 7.0, containing 1 mM EDTA and 0.1% gelatin, resuspended in fresh buffer (5 x 10⁷ cells/ml) and disrupted by nitrogen cavitation using the Parr bomb at 750 psi for 10 min. The broken cell extract was then centrifuged at 10,000 x g for 20 minutes and the supernatant centrifuged at 100,000 x g for 60 minutes. Aliquots (0.25 mls) of the supernatant were preincubated with or without drugs for 10 min, after which 10 ul CaCl₂ (50 mM) was added and the reaction was initiated with 2.5 ul of 2.5 mM arachidonic acid-1-¹⁴C (final concentration was […]; specific activity 20,000 dpm/nmole). After incubation for 3 min at 37°C, the reaction was terminated by addition of 2 volumes (0.5 ml) ice cold acetone and the sample was allowed to deproteinize on ice for 10 min prior to centrifugation at 1,000 x g for 10 min. The deproteinized supernatant was adjusted to pH 3.5 with 2N formic acid and extracted with 2 volumes of ice cold ethyl acetate. The extracted samples were dried under argon, redissolved in ethyl acetate and applied to Whatman LK5D thin layer chromatography (TLC) plates which were developed using the A-9 solvent system [organic phase of ethyl acetate: 2,2,5-trimethylpentane:acetic acid: water (110:50:20:10)] described by Hamberg and Samuelsson, J. Biol. Chem., 241, 257-263 (1966). Arachidonic acid, 5-HETE, di-HETE and PGD₂ were quantified with a Berthold LB 2832 autoscanner.
(§5) The 5-lipoxygenase and LTA₄ synthetase activities were further studied under the following conditions. An additional centrifugation of the RBL-1 supernatant was run at 100,000 x g for 60 min, to remove the particulate cyclooxygenase activity. Sample incubation was done under conditions similar to those described above, i.e., 2 mM CaCl₂ and 25 uM arachidonic acid-1-¹⁴C, however, with an incubation time of 5 min at […]. Under these conditions, only the 5-lipoxygenase pathway metabolites were detectable. The 5-HETE and di-HETEs were formed at a linear rate, and […] amounts of the arachidonic acid-1-¹⁴C substrate were utilized.

[5] = target: T2, 5-LO (Rattus norvegicus, UniProt P12527); test: di-HETE production by RBL-1 high speed supernatant; type: biochemical; settings: Table 9A; di-HETE production by RBL-1 high speed supernatant; read-out: 5-LO IC50
T2 construct: The activities of these enzymes in extracts of RBL-1 cells were assayed; host or cells: RBL-1 cells, disrupted by nitrogen cavitation; 10,000 x g or 100,000 x g supernatant
T2 sequence (P12527 1-673): T1 sequence (P12527 1-673)
Description: as §3, §4, §5

[6] = Table 7, 25 mg/kg, p.o., pretreated at 2 hrs

For `C[C@@H]1C[C@H]2[C@@H]3CCC4=CC(=O)C=C[C@]4(C)[C@@]3(F)[C@@H](O)C[C@]2(C)[C@@]1(O)C(=O)CO` [Dexamethasone], the “% Change” value ([1]; 12.5 mg/kg) was -54^b %, the “PMN x 10⁻⁵/ml (mean ± S.D.)” value ([1]; 12.5 mg/kg) was 9.1 ± 2.0 x 10⁻⁵/ml and the “% Change” value ([1]; 25 mg/kg) was -55^b %. The “PMN x 10⁻⁵/ml (mean ± S.D.)” value ([1]; 25 mg/kg) was 8.8 ± 2.6 x 10⁻⁵/ml, the “% Change” value ([1]; 50 mg/kg) was -69^b % and the “PMN x 10⁻⁵/ml (mean ± S.D.)” value ([1]; 50 mg/kg) was 6.1 ± 1.5 x 10⁻⁵/ml. For the same compound, the “% Change” value [2, 6] was -35^c % and the “Increase in Ear Thickness at 1 Hour (x 10⁻³ cm)” value [2, 6] was 18.2 ± 4.1 x 10⁻³ cm.
`COc1ccc2cc([C@H](C)C(=O)O)ccc2c1` [Naproxen] gave an IC50 ([3]; Macrophage, read-out: IC₅₀ production of PGE₂ by inflammatory macrophages) of 1.8 µM and an IC50 ([3]; Peritoneal macrophage, read-out: IC₅₀ (»M) production of PGE₂) of 1.8 µM.
For `O=C(c1ccccc1)N1C=CC(c2c(-c3ccc(F)cc3)nc3n2CCS3)C=C1` [Compound 49], the “% Inhibition of Ear Swelling” value [2] was 15* %, the IC50 [4] was 73 µM and the IC50 [5] was 53 µM.
For `Fc1ccc(-c2nc3n(c2-c2ccncc2)CCC3)cc1` [Compound 39, 2-(4-fluorophenyl)-3-(4-pyridyl)-6,7-dihydro-[5H]-pyrrolo [1,2-a]imidazole], the “% Inhibition of Ear Swelling” value [2] was 93%, the IC50 [4] was 67 µM and the IC50 [5] was 32 µM.
In the case of `CN(C)c1ccc(-c2c(-c3ccc(F)cc3)nc3n2CCS3)cc1` [Compound 10, 5-(4-N,N-Dimethylaminophenyl)-6-(4-fluorophenyl)-2,3-dihydroimidazo[2,1-b]thiazole], the “% Inhibition of Ear Swelling” value [2] is reported as 17* %, the IC50 [4] is reported as 5 µM and the IC50 [5] is reported as 1.5 µM.
In the case of `COc1ccc(-c2nc3n(c2-c2ccncc2)CC[S+]3[O-])cc1` (centres unmarked) [Compound 41], the “% Inhibition of Ear Swelling” value [2] is reported as 45*** %.
`CCOC(=O)N1C=CC(c2c(-c3ccc(F)cc3)nc3n2CCS3)C=C1` [Compound 48] was tested, and the “% Inhibition of Ear Swelling” value [2] was 25*** %, the IC50 [4] was 9 µM and the IC50 [5] was 7 µM.
